# Data published in US6191271A, “Synthetic divalent sLex containing polylactosamines and methods for use” (Glycim Oy, priority 1998, dated 2001).
# Entries after “also recorded” stand apart in the source; their conditions may differ.
# Legend:
# human Fuc-TIV = experiment: Fucosyltransferase reaction with lysates of CHO-cells transfected with human Fuc-TIV; type: biochemical; settings: for share of Fuc-TIV fucose transfer at the terminal (sialylated or non-reducing end) LN unit: residue 3 / terminal LN unit
# Method: (§1) Transfected Cells and Cell Lysates--The transfection of CHO-cells stably expressing human Fuc-TIV or Fuc-TVII has been described previously (Lowe, J. B., et al., J. Biol. Chem. 266:17467-17477 (1991); Natsuka, S., et al., J. Biol. Chem. 269:16789-16794 (1994)). For the enzyme assays, the cells were lysed in 1% Triton X-100 on ice in the presence of a mixture of protease inhibitors (16 μg/ml benzamidine HCl, 10 μg/ml phenanthroline, 10 μg/ml aprotinin, 10 μg/ml leupeptin, 10 μg/ml pepstatin A, 1 mM PMSF, Pharmingen, San Diego, Calif.).
# (§2) Glycan 1 was from Sigma (St. Louis, Mo.), and glycan 2 from Oxford Glycosystems (Abingdon, UK). The others were synthesized enzymatically. Briefly, glycan 11 was constructed from GlcNAcβ1-3Galβ1-OMe (Sigma) by β1,4-galactosylation (Brew, K., et al., Proc. Natl. Acad Sci. USA 59:491-497 (1968)) followed by β1,3-N-acetylglycosaminylation (Seppo, A., et al., Biochem. Cell Biol. 68:44-53 (1990)) and a second round of β1-4-galactosylation. […] Glycan 3 was obtained from glycan 11 by α2,3-sialylation as in (Maaheimo, H., et al., Eur. J. Biochem. 234:616-625 (1995)). Glycan 12 was constructed from the GNβ1-3 'LNβ1-3 'LN (Leppanen, A., et al., Biochemistry 30:9287-9296(1991)) by β1,4-galactosylation, MALDI-TOF MS: (M+Na)^+ m/z 1137.1 (calc. 1137.0). Glycan 4 was obtained by glycan 12 by α2,3-sialylation. Glycan 15 was synthesized as in (Renkonen, O., et al., Biochem. Cell. Biol. 68:1032-1036 (1990)), MALDI-TOF MS: (M+Na)^+ m/z 1136.9 (calc. 1137.0). Glycan 16 was obtained by a 2,3-salylation of 15. In the synthesis of glycan 8, GNβ1-3'LNβ1-3'LN was α1,3 [^14 C]fucosylated at both LN units with α1,3/4-FucTs ofhuman milk and then β1,4-galactosylated. MALDI-TOF MS of the resulting octasaccharide LN β1-3'Lexβ1-3'Lex gave (M+Na)^+ m/z 1429.3 (calc. 1429.3). The octasaccharide was finally α2,3-sialylated to give glycan 8. Degradation of glycan 8 by sialidase and a mixture of β-galactosidaseand β-N-acetylhexosaminidase gave the neutral hexasaccharide [^14 C]Fucα1-3LNβ1-3'[^14 C]Fucα1-3LN, which chromatographed like an authentic marker on paper. In the synthesis of glycan 5, glycan 10 was converted to the pentasaccharide LNβ1-3 '(GNβ1-6 ')LN as in (Niemela, R., et al., Carbohydr. Res. 279:331-338 (1995); Maaheimo, H., et al., Carbohydr. Res. 297:53-59 (1997)), MALDI-TOF MS: (M+Na)^+ m/z 974.8 (calc. 974.9). The product was α2,3-sialylated, α1,3-fucosylated selectively at the distal, sialylated LN-unit (Niemela, R., et al., Carbohydr. Res. 279:331-338 (1995), and treated with β-N-acetylhexosaminidase for removal of the protecting β1-6GN-unit to give glycan 5. Glycan 6, in turn, was obtained by α1,3-fucosylating glycan 9 at the LN unit by human milk α1,3/4-Fuc-Ts. The product was then β1,4-galactosylated and finally α2,3-sialylated. Glycan 7 was synthesized by α2,3-sialylation of the heptasaccharide LNβ1-3'Lexβ1-3'LN,prepared by β1,4-galactosylation of GNβ1-3 'Lexβ1-3 'LN, which had been isolated from a mixture of monofucosylated isomers by wheat germ agglutinin (WGA)-agarose chromatography. LNβ1-3'Lexβ1-3'N was characterized by ^1 H-NMR-spectroscopy, MALDI-TOF MS: (M+Na)^+m/z 1282.5 (calc. 1282.5). Glycan 9 was obtained by β1,3-N-acetylglucosaminylation of LN (Seppo, A., et al., Biochem. Cell Biol. 68:44-53 (1990)), MALDI-TOF MS: (M+Na)^+ m/z 609.7 (calc. 609.5). Glycan 10 was synthesized by β1,4-galactosylation of glycan 9. Glycans 13 and 14 were obtained by separating monofucosylated derivatives of glycan 10 by WGA chromatography. Glycan 13, MALDI-TOF MS: (M+Na)^+ m/z 917.9 (calc. 917.8). Glycan 14, MALDI-TOF MS: (M+Na)^+ m/z 917.8 (calc. 917.8). […]
# human Fuc-TVII = experiment: Fucosyltransferase reaction with lysates of CHO-cells transfected with human Fuc-TVII; type: biochemical
# Method: as §1
# as §2, with “chromatography.” for “chromatography. Glycan 13, MALDI-TOF MS: (M+Na)^+ m/z 917.9 (calc. 917.8). Glycan 14, MALDI-TOF MS: (M+Na)^+ m/z 917.8 (calc. 917.8).”
# [1] = system: rat lymphocyte L-selectin; experiment: Stamper-Woodruff assay: in vitro lymphocyte adhesion to high endothelial venules (HEV) of peripheral rat lymph nodes; type: cell-based
# Method: The affinities of the glycans of the invention towards rat lymphocyte L-selectin were analyzed with the in vitro Stamper-Woodruff binding assay. […] The important control saccharides, carrying at the distal termini the fucose-free sLN-residues instead of the sLex-epitopes are consistently without any inhibitory effect.
# Lymphocytes were isolated from mesenterical lymph nodes of WF or DA rats and used immediately in the assay after isolation and pretreatment. […] Lymphocytes were over 99% of purity as quantitated by cytocentrifuge preparations. […]
# In the Stamper-Woodruff assay 3×10^6 lymphocytes in 100 μl of RPMI containing 0.5% FCS were put on a frozen section inside a 23 mm wax circle, and rotated for 30 min at +4° C. […] The number of bound lymphocytes was calculated per high endothelial venules and 50 to 100 vessels were identified from each sample. […]
# Lymphocyte adhesion was studied in a well documented L-selectin-dependent Stamper-Woodruff assay where frozen sections of lymph nodes were prepared, lymphocytes were placed on top of them, adhesion was permitted on a rotator and the number of adherent cells were quantitated visually. […]
compound,measurement,setting,value
SAα2-3'LNβ1-3'LNβ1-3'LN [glycan 4 (FIG. 8)],"fucosylation by Fuc-TIV, acceptor- and site-specificity (in words)",human Fuc-TIV,"efficiently fucosylates; also recorded: transfers rapidly to sialoglycan 4, at both ""inner"" LN units; also recorded: efficient conversion of glycan 4 to glycan 8 in two steps catalyzed by Fuc-TIV, but not by Fuc-TVII"
same,"rate of Fuc-TIV transfer to the sialylated LN unit (residue 3), times slower than to both inner LN units",human Fuc-TIV; residue 3 vs residues 1 and 2,30-40 times slower
same,"fucosylation by Fuc-TVII, acceptor- and site-specificity (in words)",human Fuc-TVII,"transfers preferentially to the sialylated, distal LN residue"
same,"rate of Fuc-TVII transfer to the reducing end LN unit (residue 1), times slower than to the sialylated LN residue",human Fuc-TVII; residue 1 vs residue 3,84 times slower
same,"rate of Fuc-TVII transfer to the middle LN unit (residue 2), times slower than to the sialylated LN residue",human Fuc-TVII; residue 2 vs residue 3,17 times slower
"CC(=O)N[C@H]1C(O)O[C@H](CO)[C@@H](O[C@@H]2O[C@H](CO)[C@H](O)[C@H](O)[C@H]2O)[C@@H]1O (stereo partly shown) [glycan 1 (FIG. 8), N-acetyllactosamine, reference compound]","fucosylation by Fuc-TIV, acceptor- and site-specificity (in words)",human Fuc-TIV,rapidly fucosylates
same,Transfer rate (reference acceptor),human Fuc-TIV; reference acceptor for Fuc-TIV,~3.9 pmol/μg protein/h
SAα2-3'LNβ1-3Lex β1-3'[^14 C]Lex [glycan 8 (FIG. 8)],"fucosylation by Fuc-TIV, acceptor- and site-specificity (in words)",human Fuc-TIV,ineffective
same,rate of Fuc-TIV reaction as % of the rate catalyzed by Fuc-TVII,human Fuc-TIV; transfer to distal sialylated LN unit giving SAα2-3'Lexβ1-3'Lexβ1-3'Lex,6-7%
same,"fucosylation by Fuc-TVII, acceptor- and site-specificity (in words)",human Fuc-TVII,nearly as rapidly as glycan 2
LNβ1-3 'LNβ1-3'Galβ1-OMe [glycan 11 (FIG. 8)],"fucosylation by Fuc-TIV, acceptor- and site-specificity (in words)",human Fuc-TIV,transferred efficiently
same,share of Fuc-TIV fucose transfer at the middle LN unit (residue 2),human Fuc-TIV,67%
same,share of Fuc-TIV fucose transfer at the terminal (sialylated or non-reducing end) LN unit,human Fuc-TIV,33%
LN1-3'LN1-3'LN [glycan 12 (FIG. 8)],share of Fuc-TIV fucose transfer at the innermost / reducing end LN unit (residue 1),human Fuc-TIV,28%
same,share of Fuc-TIV fucose transfer at the middle LN unit (residue 2),human Fuc-TIV,47%
same,share of Fuc-TIV fucose transfer at the terminal (sialylated or non-reducing end) LN unit,human Fuc-TIV,25%
LNβ1-3'Lex [glycan 14 (FIG. 8)],"fucosylation by Fuc-TIV, acceptor- and site-specificity (in words)",human Fuc-TIV,transferred rapidly
"SAα2,3'LNβ1,3'LNβ1,3' (SAα2,3'LNβ1,3'LNβ1,6')LN [glycan 5]",effect on lymphocyte adhesion to HEV (in words),[1]; 50 nM,no effect in lymphocyte binding to HEV
same,effect on lymphocyte adhesion/binding to HEV (in words),[1]; peripheral rat lymph node HEV,did not show inhibitory effects
"CC(=O)N[C@H]1[C@H]([C@H](O)[C@H](O)CO)O[C@@](O[C@H]2[C@@H](O)[C@@H](CO)O[C@@H](O[C@H]3[C@H](O)[C@@H](NC(C)=O)C(O)O[C@@H]3CO)[C@@H]2O)(C(=O)O)C[C@@H]1O (stereo partly shown) [glycan 2 (FIG. 8), SAα2-3 'LN, reference compound]","fucosylation by Fuc-TIV, acceptor- and site-specificity (in words)",human Fuc-TIV,ineffective
same,Transfer rate (reference acceptor),human Fuc-TVII; reference acceptor for Fuc-TVII,~3.2 pmol/μg protein/h
Lexβ1-3 'LN [glycan 13 (FIG. 8)],"fucosylation by Fuc-TIV, acceptor- and site-specificity (in words)",human Fuc-TIV,transferred rapidly
SAα2-3'LNβ1-3'Lexβ1-3'LN [glycan 7 (FIG. 8)],"fucosylation by Fuc-TIV, acceptor- and site-specificity (in words)",human Fuc-TIV,effectively utilizes
same,share of Fuc-TIV fucose transfer at the innermost / reducing end LN unit (residue 1),human Fuc-TIV,86%
same,share of Fuc-TIV fucose transfer at the terminal (sialylated or non-reducing end) LN unit,human Fuc-TIV,Less than 5%
